Active and inactive are the calls of the source. The rule behind the calls is not given here.
What was measured:
[1] = test system: Vaccinia virus WR; test: Antiviral activity against Vaccinia virus WR ATCC VR-1354 infected through intravenous route in BALB/c mouse assessed as reduction of viral load in spleen at 100 mg/kg, po qd measured after 14 days postinfection by RT-PCR analysis relative to control; assay type: functional, organism-based; parameters: dose 100 mg/kg
[2] = test system: Vaccinia virus WR; test: Antiviral activity against Vaccinia virus WR ATCC VR-1354 infected through intravenous route in BALB/c mouse assessed as reduction of viral load in blood at 100 mg/kg, po qd measured after 14 days postinfection by RT-PCR analysis relative to control; assay type: functional, organism-based; parameters: dose 100 mg/kg
[3] = test system: Vaccinia virus WR; test: Antiviral activity against Vaccinia virus WR ATCC VR-1354 infected through intravenous route in BALB/c mouse assessed as reduction of viral load in liver at 100 mg/kg, po qd measured after 3 days postinfection by RT-PCR analysis relative to control; assay type: functional
[4] = test system: Vaccinia virus WR; test: Antiviral activity against Vaccinia virus WR ATCC VR-1354 infected through subcutaneous route in BALB/c mouse assessed as reduction of viral load in lung at 100 mg/kg, po qd measured after 3 to 5 days postinfection by RT-PCR analysis relative to control; assay type: functional
[5] = test system: Vaccinia virus WR; test: Antiviral activity against Vaccinia virus WR ATCC VR-1354 infected through intraperitoneal route in BALB/c mouse assessed as reduction of viral load in lung at 100 mg/kg, po qd measured after 3 days postinfection by RT-PCR analysis relative to control; assay type: functional, organism-based; parameters: dose 100 mg/kg
[6] = test system: Vaccinia virus WR; test: Antiviral activity against Vaccinia virus WR ATCC VR-1354 infected through percutaneous route in BALB/c mouse assessed as protection against virus-induced death at 100 mg/kg, po qd for 5 to 14 days; assay type: functional, organism-based; parameters: dose 100 mg/kg
[7] = test system: Vaccinia virus WR; test: Antiviral activity against Vaccinia virus WR ATCC VR-1354 infected through percutaneous route in BALB/c mouse assessed as protection against virus-induced death at 100 mg/kg, po qd for 1 to 3 days; assay type: functional, organism-based; parameters: dose 100 mg/kg
[8] = test system: Vaccinia virus WR; test: Antiviral activity against Vaccinia virus WR ATCC VR-1354 infected through percutaneous route in BALB/c mouse assessed as inhibition of virus dissemination in spleen at 100 mg/kg, po qd for 3 days by RT-PCR analysis relative to control; assay type: functional
[9] = test system: Vaccinia virus WR; test: Antiviral activity against Vaccinia virus WR ATCC VR-1354 infected through percutaneous route in BALB/c mouse assessed as reduction of viral load in spleen at 100 mg/kg, po qd for 3 days by RT-PCR analysis relative to control; assay type: functional
[10] = test system: Vaccinia virus WR; test: Antiviral activity against Vaccinia virus WR ATCC VR-1354 infected through percutaneous route in BALB/c mouse assessed as inhibition of virus dissemination in blood at 100 mg/kg, po qd for 1 day by RT-PCR analysis; assay type: functional, organism-based; parameters: dose 100 mg/kg
[11] = test system: Vaccinia virus WR; test: Antiviral activity against Vaccinia virus WR ATCC VR-1354 infected through percutaneous route in BALB/c mouse assessed as inhibition of virus dissemination in brain at 100 mg/kg, po qd for 1 day by RT-PCR analysis; assay type: functional, organism-based; parameters: dose 100 mg/kg
[12] = test system: Vaccinia virus WR; test: Antiviral activity against Vaccinia virus WR ATCC VR-1354 infected through percutaneous route in BALB/c mouse assessed as protection against virus-induced death at 100 mg/kg, po qd administered 4 days after postinfection measured on day 6; assay type: functional, organism-based; parameters: dose 100 mg/kg
[13] = test system: Vaccinia virus WR; test: Antiviral activity against Vaccinia virus WR ATCC VR-1354 infected through intraperitoneal route in BALB/c mouse assessed as protection against virus-induced systemic disease symptoms at 100 mg/kg, po qd measured after 9 days postinfection; assay type: functional, organism-based; parameters: dose 100 mg/kg
[14] = test system: Vaccinia virus WR; test: Antiviral activity against Vaccinia virus WR ATCC VR-1354 infected through intravenous route in BALB/c mouse assessed as protection against virus-induced conjunctivitis in mouse eyes at 100 mg/kg, po qd measured after 6 days postinfection; assay type: functional, organism-based; parameters: dose 100 mg/kg
[15] = test system: Vaccinia virus WR; test: Antiviral activity against Vaccinia virus WR ATCC VR-1354 infected through subcutaneous route in BALB/c mouse assessed as protection against virus-induced satellite lesion formation on tails at 100 mg/kg, po qd measured after 6 days postinfection; assay type: functional, organism-based; parameters: dose 100 mg/kg
[16] = test system: Vaccinia virus WR; test: Antiviral activity against Vaccinia virus WR ATCC VR-1354 infected through intraperitoneal route in BALB/c mouse assessed as protection against virus-induced satellite lesion formation on tails at 100 mg/kg, po qd measured after 6 days postinfection; assay type: functional, organism-based; parameters: dose 100 mg/kg
[17] = test system: Vaccinia virus WR; test: Antiviral activity against Vaccinia virus WR ATCC VR-1354 infected through intraperitoneal route in BALB/c mouse assessed as protection against virus-induced conjunctivitis in mouse eyes at 100 mg/kg, po qd measured after 6 days postinfection; assay type: functional, organism-based; parameters: dose 100 mg/kg
[18] = test system: Vaccinia virus WR; test: Antiviral activity against Vaccinia virus WR ATCC VR-1354 infected through percutaneous route in BALB/c mouse assessed as reduction of viral load in liver at 100 mg/kg, po qd measured after 3 days postinfection by RT-PCR analysis relative to control; assay type: functional
[19] = test system: Vaccinia virus WR; test: Antiviral activity against Vaccinia virus WR ATCC VR-1354 infected through percutaneous route in BALB/c mouse assessed as reduction of viral load in blood at 100 mg/kg, po qd measured after 5 days postinfection by RT-PCR analysis relative to control; assay type: functional
[20] = test system: Vaccinia virus WR; test: Antiviral activity against Vaccinia virus WR ATCC VR-1354 infected through percutaneous route in BALB/c mouse assessed as reduction of viral load in liver at 100 mg/kg, po qd measured after 5 days postinfection by RT-PCR analysis relative to control; assay type: functional
[21] = test system: Vaccinia virus WR; test: Antiviral activity against Vaccinia virus WR ATCC VR-1354 infected through percutaneous route in BALB/c mouse assessed as reduction of viral load in blood at 100 mg/kg, po qd measured after 7 days postinfection by RT-PCR analysis relative to control; assay type: functional, organism-based; parameters: dose 100 mg/kg
[22] = test system: Vaccinia virus WR; test: Antiviral activity against Vaccinia virus WR ATCC VR-1354 infected through percutaneous route in BALB/c mouse assessed as reduction of viral load in spleen at 100 mg/kg, po qd measured after 7 days postinfection by RT-PCR analysis relative to control; assay type: functional, organism-based; parameters: dose 100 mg/kg
[23] = test system: Vaccinia virus WR; test: Antiviral activity against Vaccinia virus WR ATCC VR-1354 infected through percutaneous route in BALB/c mouse assessed as reduction of viral load in liver at 100 mg/kg, po qd measured after 7 days postinfection by RT-PCR analysis relative to control; assay type: functional, organism-based; parameters: dose 100 mg/kg
[24] = test system: Vaccinia virus WR; test: Antiviral activity against Vaccinia virus WR ATCC VR-1354 infected through percutaneous route in BALB/c mouse assessed as reduction of viral load in liver at 100 mg/kg, po qd measured after 13 days postinfection by RT-PCR analysis relative to control; assay type: functional, organism-based; parameters: dose 100 mg/kg
[25] = test system: Vaccinia virus WR; test: Antiviral activity against Vaccinia virus WR ATCC VR-1354 infected through dermal scarification route in BALB/c mouse assessed as reduction of viral load in lung at 100 mg/kg, po qd measured after 14 days postinfection by RT-PCR analysis relative to control; assay type: functional, organism-based; parameters: dose 100 mg/kg
[26] = test system: Vaccinia virus WR; test: Antiviral activity against Vaccinia virus WR ATCC VR-1354 infected through dermal scarification route in BALB/c mouse assessed as reduction of viral load in spleen at 100 mg/kg, po qd measured after 14 days postinfection by RT-PCR analysis relative to control; assay type: functional, organism-based; parameters: dose 100 mg/kg

O=C(NN1C(=O)[C@@H]2[C@@H]3C=C[C@@H]([C@H]4C[C@@H]34)[C@@H]2C1=O)c1ccc(C(F)(F)F)cc1 [TECOVIRIMAT]
Activity [1]: Active
Activity [2]: Active
fold change (FC) [3]: 8
fold change (FC) [4]: 30
Activity [5]: inactive
Activity [6]: Active
Activity [7]: inactive
fold change (FC) [8]: 85
fold change (FC) [9]: 300
Activity [10]: inactive
Activity [11]: inactive
Activity [12]: inactive
Activity [13]: Active
Activity [14]: Active
Activity [15]: Active
Activity [16]: Active
Activity [17]: Active
fold change (FC) [18]: 45
fold change (FC) [19]: 90
fold change (FC) [20]: 300
Activity [21]: Active
Activity [22]: Active
Activity [23]: Active
Activity [24]: Active
Activity [25]: Active
Activity [26]: Active

From ChEMBL document CHEMBL1649270, “ST-246 inhibits in vivo poxvirus dissemination, virus shedding, and systemic disease manifestation” (2009)
